Test results: patent publication US10035810B2, “5,6-dihydro-4H-benzo[b]thieno-[2,3-d]azepine derivative” (PULMOCIDE LIMITED, priority 2014, dated 2018)

Columns and labels:
RSV A2 F-protein = experiment: RSV F protein expression in BEAS2B bronchial epithelial cells; assay type: cell-based; settings: human respiratory syncytial virus, BEAS-2B, 72 h, read-out: RSV A2 F-protein IC50
Protocol: Assessment of RSV F Protein Expression in BEAS2B Bronchial Epithelial Cells
An early event which follows the infection of epithelial cells by RSV is the expression of RSV F-protein on the cells' surface. BEAS2B cells (SV40-immortalised human bronchial epithelial cell line) were grown in 96 well plates. Once more than 70% confluent, cells were infected with RSV A2 (#0709161v, NCPV, Public Health England, Wiltshire) at an MOI of 0.01 in clear RPMI-1640 medium (Life technologies, Paisley, UK) with 2% FBS (Life technologies, Paisley, UK), and incubated for 3 days (37° C./5% CO2).
Supernatant was aspirated and the cells were fixed with 4% formaldehyde (100 μL in PBS solution) for 20 min, washed 3 times with washing buffer (200 μL; PBS containing 0.05% Tween-20) and incubated with blocking solution (100 μL; 5% Marvel milk in PBS) for 1 hr. […] The resultant signal was determined colourimetrically (OD: 450 nm with a reference wavelength of 655 nm) in a microplate reader (Multiskan FC®, ThermoFisher Scientific). […] After washing with PBS (200 μL) three times, 1% SDS (100 μL) was added to each well, and plates were shaken lightly for 1 hr prior to reading the absorbance at 595 nm. The measured OD450-655 readings were corrected for cell number by dividing the OD450-655 by the OD595 readings. […]

hRSV/A/Long = experiment: RSV infection in cotton rats: virus titre in lung homogenate (plaque assay); assay type: in vivo, cotton rats (Sigmodon hispidus)
[1] = tested on: RSV NS-1 gene transcripts; experiment: RSV infection in cotton rats: RSV NS-1 gene transcript in lung (qRT-PCR); assay type: in vivo, cotton rats (Sigmodon hispidus); settings: infected cotton rats
Protocol: (§1) RSV Infection in Cotton Rats
(§2) Male Sigmodon hispidus cotton rats between 6 and 8 weeks of age were infected with hRSV/A/Long (ATCC, Manassas, Va.; 10^5 pfu) in a volume of 0.1 mL of sucrose stabilizing media. Compound (I) was dissolved in 100% DMSO (at 3.3, 10, 33 and 100 mg/mL), then diluted at 1:10 in isotonic saline to achieve 10% DMSO in all treatments. Formulations were then sonicated to produce suspensions. The resulting suspensions were administered intranasally (50 μL) by pipette 4 hr before infection (on day 0), and then on days 1, 2 and 3 post infection. Four days after RSV challenge, the animals were euthanised and the lungs were removed. The left lobe was used for viral titration via plaque assay and the lingular lobe for RSV/A/Long NS-1 qRT-PCR and cytokine qRT-PCR.
Total RNA was also extracted from homogenized lung tissue (RNeasy purification kit; Qiagen) and a sample (1 μg) was used to prepare cDNA using QuantiTect Reverse Transcription Kit (Qiagen). For real-time PCR reactions (RSV NS-1 and RANTES genes) the QuantiFast SYBR® Green PCR Kit (Qiagen) was used in a final volume of 25 μL, with final primer concentrations of 0.5 μM. […] Baseline cycles and cycle threshold (Ct) were calculated by the iQ5 software in the PCR Base Line Subtracted Curve Fit mode. […] The mRNA levels were expressed as the geometric mean±SEM for all animals in a group.

RANTES gene transcript = experiment: RSV infection in cotton rats: RANTES gene transcript in lung (qRT-PCR); assay type: in vivo, cotton rats (Sigmodon hispidus); settings: for RANTES gene transcript % inhibition / RANTES gene transcript (/β-actin), Median: cotton rats, lung, intranasal
Protocol: as §1, §2
Total RNA was also extracted from homogenized lung tissue (RNeasy purification kit; Qiagen) and a sample (1 μg) was used to prepare cDNA using QuantiTect Reverse Transcription Kit (Qiagen). For real-time PCR reactions (RSV NS-1 and RANTES genes) the QuantiFast SYBR® Green PCR Kit (Qiagen) was used in a final volume of 25 μL, with final primer concentrations of 0.5 μM. Amplifications were performed on a Bio-Rad iCycler for 1 cycle of 95° C. for 3 min, followed by 40 cycles of 95° C. for 10 sec, 60° C. for 10 sec, and 72° C. for 15 sec. Baseline cycles and cycle threshold (Ct) were calculated by the iQ5 software in the PCR Base Line Subtracted Curve Fit mode. The standard curves were developed using serially diluted cDNA sample most enriched in the transcript of interest (e.g., lungs from day 4 post-primary RSV infection). The Ct values were plotted against login cDNA dilution factor. These curves were used to convert the Ct values obtained for different samples to relative expression units which were then normalized to the level of β-actin mRNA (“housekeeping gene”) expressed in the corresponding sample. The mRNA levels were expressed as the geometric mean±SEM for all animals in a group.

Cc1cnc(N2CC3(CCOCC3)C2)c(C(=O)Nc2ccc(C(=O)N3CCc4cc(C(=O)Nc5c(C)cccc5F)sc4-c4ccccc43)cc2)c1 [Compound (I), N-(2-fluoro-6-methylphenyl)-6-(4-(5-methyl-2-(7-oxa-2-azaspiro[3.5]nonan-2-yl)nicotinamido)benzoyl)-5,6-dihydro-4H-benzo[b]thieno[2,3-d]azepine-2-carboxamide]
IC50 (RSV A2 F-protein): 0.17 nM
Virus titre in the lungs (in words) (hRSV/A/Long; RSV A2 infected cotton rats): completely inhibited virus titre
Virus titre in lung homogenates (in words) (hRSV/A/Long; infected cotton rats, day 4): potent dose-dependent inhibition of virus titre
RSV NS-1 gene transcripts in lung (in words) [1]: dose-dependent inhibition of RSV NS-1 gene transcripts
RANTES gene transcript % inhibition (RANTES gene transcript; 0.33 mg/mL): 28%
RANTES gene transcript (/β-actin), Median (RANTES gene transcript; 0.33 mg/mL): 0.21 /β-actin
RANTES gene transcript % inhibition (RANTES gene transcript; 1.0 mg/mL): 45%
RANTES gene transcript (/β-actin), Median (RANTES gene transcript; 1.0 mg/mL): 0.16 /β-actin
RANTES gene transcript % inhibition (RANTES gene transcript; 3.3 mg/mL): 62%
RANTES gene transcript (/β-actin), Median (RANTES gene transcript; 3.3 mg/mL): 0.11 /β-actin
RANTES gene transcript % inhibition (RANTES gene transcript; 10 mg/mL): 55%
RANTES gene transcript (/β-actin), Median (RANTES gene transcript; 10 mg/mL): 0.13 /β-actin
RANTES transcripts in lung (in words) (RANTES gene transcript; infected cotton rats): dose-dependent inhibition
